Assay results: ChEMBL document CHEMBL3779788, “Facile synthesis of 1,3-thiazolidin-4-ones as antitubercular agents” (Bioorg Med Chem Lett, 2016)
In brackets after ≈: the same amount, converted by molar mass.

Columns and labels:
[1] = tested on: Mycobacterium bovis BCG str. ATCC 35743; assay: Antitubercular activity against dormant Mycobacterium bovis BCG ATCC 35743 assessed as growth inhibition at 3 ug/mL by NR assay; assay type: functional
[2] = tested on: Mycobacterium bovis BCG str. ATCC 35743; assay: Antitubercular activity against dormant Mycobacterium bovis BCG ATCC 35743 assessed as growth inhibition at 10 ug/mL by NR assay; assay type: functional
[3] = tested on: Mycobacterium tuberculosis; assay: Antitubercular activity against dormant Mycobacterium tuberculosis H37Ra assessed as growth inhibition at 30 ug/mL by XTT reduction menadione assay; assay type: functional; conditions: read-out: GI
[4] = tested on: Mycobacterium tuberculosis; assay: Antitubercular activity against dormant Mycobacterium tuberculosis H37Ra assessed as growth inhibition at 10 ug/mL by XTT reduction menadione assay; assay type: functional; conditions: read-out: GI
[5] = tested on: Mycobacterium tuberculosis; assay: Antitubercular activity against dormant Mycobacterium tuberculosis H37Ra assessed as growth inhibition at 3 ug/mL by XTT reduction menadione assay; assay type: functional; conditions: read-out: GI
[6] = tested on: Mycobacterium bovis BCG str. ATCC 35743; assay: Antitubercular activity against dormant Mycobacterium bovis BCG ATCC 35743 assessed as growth inhibition at 30 ug/mL by NR assay; assay type: functional
[7] = (§1) Antitubercular activity against dormant Mycobacterium bovis BCG ATCC 35743 by NR assay; assay type: functional, Mycobacterium bovis BCG str. ATCC 35743
[8] = tested on: Mycobacterium bovis BCG str. ATCC 35743; assay: as §1; assay type: functional
[9] = tested on: Mycobacterium tuberculosis; assay: Antitubercular activity against dormant Mycobacterium tuberculosis H37Ra by XTT reduction menadione assay; assay type: functional, organism-based
[10] = Cytotoxicity against human MCF7 cells at 30 ug/mL by MTT assay; assay type: cell-based; conditions: read-out: INH
[11] = Cytotoxicity against human MCF7 cells at 10 ug/mL by MTT assay; assay type: cell-based; conditions: read-out: INH
[12] = Cytotoxicity against human MCF7 cells at 3 ug/mL by MTT assay; assay type: cell-based; conditions: read-out: INH
[13] = Cytotoxicity against human A549 cells at 30 ug/mL by MTT assay; assay type: cell-based; conditions: read-out: INH
[14] = Cytotoxicity against human A549 cells at 10 ug/mL by MTT assay; assay type: cell-based; conditions: read-out: INH
[15] = Cytotoxicity against human A549 cells at 3 ug/mL by MTT assay; assay type: cell-based; conditions: read-out: INH
[16] = Cytotoxicity against human HCT116 cells at 30 ug/mL by MTT assay; assay type: cell-based, HCT-116; conditions: read-out: INH
[17] = Cytotoxicity against human HCT116 cells at 10 ug/mL by MTT assay; assay type: cell-based, HCT-116; conditions: read-out: INH
[18] = Cytotoxicity against human HCT116 cells at 3 ug/mL by MTT assay; assay type: cell-based, HCT-116; conditions: read-out: INH
[19] = Cytotoxicity against human HCT116 cells after 48 and 72 hrs by MTT assay; assay type: cell-based, HCT-116; conditions: for GI50 at 72 h: HCT116 cells; for GI90: hct-116, 72 h
[20] = (§2) Cytotoxicity against human A549 cells after 48 and 72 hrs by MTT assay; assay type: cell-based; conditions: A549 cells
A549 = assay: as §2; assay type: cell-based; conditions: a549, 72 h
[21] = (§3) Cytotoxicity against human MCF7 cells after 48 and 72 hrs by MTT assay; assay type: cell-based; conditions: MCF7 cells
MCF7 = assay: as §3; assay type: cell-based; conditions: mcf7, 72 h
Escherichia coli = assay: Antibacterial activity against Escherichia coli after 18 hrs by broth dilution method; assay type: functional, organism-based
Pseudomonas = assay: Antibacterial activity against Pseudomonas after 18 hrs by broth dilution method; assay type: functional, organism-based
Staphylococcus aureus = assay: Antibacterial activity against Staphylococcus aureus after 18 hrs by broth dilution method; assay type: functional, organism-based
Bacillus subtilis = assay: Antibacterial activity against Bacillus subtilis after 18 hrs by broth dilution method; assay type: functional, organism-based

Structure (SMILES) | growth inhibition (GI) [1] | growth inhibition (GI) [2] | inhibition of growth at 30 µg/mL [3] | inhibition of growth at 10 µg/mL [4] | inhibition of growth at 3 µg/mL [5] | growth inhibition (GI) [6] | IC50 [7] | IC90 [8] | IC50 [9] | IC90 [9] | cytotoxicity at 30 ug/mL [10] | cytotoxicity at 10 ug/mL [11] | cytotoxicity at 3 ug/mL [12] | cytotoxicity at 30 ug/mL [13] | cytotoxicity at 10 ug/mL [14] | cytotoxicity at 3 ug/mL [15] | cytotoxicity at 30 ug/mL [16] | cytotoxicity at 10 ug/mL [17] | cytotoxicity at 3 ug/mL [18] | GI50 at 72 h [19] | also measured
Cc1ccc(C2SCC(=O)N2c2ccc(F)cc2)cc1 (stereo unspecified) | -3% | -4% | 51.3% | -37% | 10.9% | -3.9% | > 30 µg/mL | > 30 µg/mL | 29.8 µg/mL (≈ 104 µM) | > 30 µg/mL | 37.5% | 37.7% | 22.3% | -11.4% | 0% | 0% | 29.6% | 9.1% | 1.1% | > 100 µg/mL | GI90 [19]: > 100 µg/mL; GI50 at 72 h [20]: > 100 µg/mL; GI90 (A549): > 100 µg/mL; GI50 at 72 h [21]: > 100 µg/mL; GI90 (MCF7): > 100 µg/mL; IC50 (Escherichia coli): > 30 µg/mL; MIC (Escherichia coli): > 30 µg/mL; IC50 (Pseudomonas): > 30 µg/mL; MIC (Pseudomonas): > 30 µg/mL; IC50 (Staphylococcus aureus): > 30 µg/mL; MIC (Staphylococcus aureus): > 30 µg/mL; IC50 (Bacillus subtilis): > 30 µg/mL; MIC (Bacillus subtilis): > 30 µg/mL
O=C1CSC(c2ccc(Cl)cc2)N1c1ccccc1 (stereo unspecified) | -0.5% | 15.9% | 82.1% | 76.8% | 34.3% | 45.6% | > 30 µg/mL | > 30 µg/mL | 5.6 µg/mL (≈ 19.3 µM) | > 30 µg/mL | 40.1% | 20.6% | -1.4% | -20.4% | 0% | -10.3% | 3.9% | 0% | -7.5% | > 100 µg/mL | GI90 [19]: > 100 µg/mL; GI50 at 72 h [20]: > 100 µg/mL; GI90 (A549): > 100 µg/mL; GI50 at 72 h [21]: > 100 µg/mL; GI90 (MCF7): > 100 µg/mL; IC50 (Escherichia coli): > 30 µg/mL; MIC (Escherichia coli): > 30 µg/mL; IC50 (Pseudomonas): > 30 µg/mL; MIC (Pseudomonas): > 30 µg/mL; IC50 (Staphylococcus aureus): > 30 µg/mL; MIC (Staphylococcus aureus): > 30 µg/mL; IC50 (Bacillus subtilis): > 30 µg/mL; MIC (Bacillus subtilis): > 30 µg/mL
O=C1CSC(c2ccc(Br)cc2)N1c1ccccc1 (stereo unspecified) | 48.7% | 44.4% | 97.7% | 66.4% | -33.2% | 48.8% | > 30 µg/mL | > 30 µg/mL | 8.9 µg/mL (≈ 26.6 µM) | 25.2 µg/mL (≈ 75.4 µM) | 32.8% | 23.8% | 22.1% | 0% | 0% | 0% | 10.1% | 4.9% | 2.4% | > 100 µg/mL | GI90 [19]: > 100 µg/mL; GI50 at 72 h [20]: > 100 µg/mL; GI90 (A549): > 100 µg/mL; GI50 at 72 h [21]: > 100 µg/mL; GI90 (MCF7): > 100 µg/mL; IC50 (Escherichia coli): > 30 µg/mL; MIC (Escherichia coli): > 30 µg/mL; IC50 (Pseudomonas): > 30 µg/mL; MIC (Pseudomonas): > 30 µg/mL; IC50 (Staphylococcus aureus): > 30 µg/mL; MIC (Staphylococcus aureus): > 30 µg/mL; IC50 (Bacillus subtilis): > 30 µg/mL; MIC (Bacillus subtilis): > 30 µg/mL
O=C1CSC(c2ccccc2)N1c1ccc(Cl)cc1 (stereo unspecified) | 1.3% | -11.3% | 94.3% | 24.2% | -17% | 11.6% | > 30 µg/mL | > 30 µg/mL | 17.3 µg/mL (≈ 59.7 µM) | 28.7 µg/mL (≈ 99 µM) | 38% | 19.5% | 11.2% | 13.4% | 0% | -12.3% | 32.8% | 30% | 19% | > 100 µg/mL | GI90 [19]: > 100 µg/mL; GI50 at 72 h [20]: > 100 µg/mL; GI90 (A549): > 100 µg/mL; GI50 at 72 h [21]: > 100 µg/mL; GI90 (MCF7): > 100 µg/mL; IC50 (Escherichia coli): > 30 µg/mL; MIC (Escherichia coli): > 30 µg/mL; IC50 (Pseudomonas): > 30 µg/mL; MIC (Pseudomonas): > 30 µg/mL; IC50 (Staphylococcus aureus): > 30 µg/mL; MIC (Staphylococcus aureus): > 30 µg/mL; IC50 (Bacillus subtilis): > 30 µg/mL; MIC (Bacillus subtilis): > 30 µg/mL
COc1ccc(C2SCC(=O)N2c2ccccc2)cc1 (stereo unspecified) | 23.2% | 56.1% | 83.3% | 74.1% | 45.1% | 85.9% | 8.7 µg/mL (≈ 30.5 µM) | > 30 µg/mL | 4.2 µg/mL (≈ 14.7 µM) | > 30 µg/mL | 18.3% | 12.6% | -2.6% | -4.3% | 0% | 0% | 8.4% | 7.2% | -5.4% | > 100 µg/mL | GI90 [19]: > 100 µg/mL; GI50 at 72 h [20]: > 100 µg/mL; GI90 (A549): > 100 µg/mL; GI50 at 72 h [21]: > 100 µg/mL; GI90 (MCF7): > 100 µg/mL; IC50 (Escherichia coli): > 30 µg/mL; MIC (Escherichia coli): > 30 µg/mL; IC50 (Pseudomonas): > 30 µg/mL; MIC (Pseudomonas): > 30 µg/mL; IC50 (Staphylococcus aureus): > 30 µg/mL; MIC (Staphylococcus aureus): > 30 µg/mL; IC50 (Bacillus subtilis): > 30 µg/mL; MIC (Bacillus subtilis): > 30 µg/mL
O=C1CSC(c2ccc(F)cc2)N1c1ccccc1 (stereo unspecified) | -10.7% | 14.4% | 92.2% | 73.2% | 25.6% | 80.2% | 20.9 µg/mL (≈ 76.5 µM) | > 30 µg/mL | 6.8 µg/mL (≈ 24.9 µM) | 27.5 µg/mL (≈ 101 µM) | 33% | 10.8% | -4.1% | 0% | 0% | 0% | 23.5% | 14.6% | -0.5% | > 100 µg/mL | GI90 [19]: > 100 µg/mL; GI50 at 72 h [20]: > 100 µg/mL; GI90 (A549): > 100 µg/mL; GI50 at 72 h [21]: > 100 µg/mL; GI90 (MCF7): > 100 µg/mL; IC50 (Escherichia coli): > 30 µg/mL; MIC (Escherichia coli): > 30 µg/mL; IC50 (Pseudomonas): > 30 µg/mL; MIC (Pseudomonas): > 30 µg/mL; IC50 (Staphylococcus aureus): > 30 µg/mL; MIC (Staphylococcus aureus): > 30 µg/mL; IC50 (Bacillus subtilis): > 30 µg/mL; MIC (Bacillus subtilis): > 30 µg/mL
O=C1CSC(c2ccccc2)N1c1ccccc1 (stereo unspecified) | 14.2% | 15.4% | 34.5% | 31.7% | 5% | 80.7% | 20.7 µg/mL (≈ 81.1 µM) | > 30 µg/mL | > 30 µg/mL | > 30 µg/mL | 31.7% | 5.3% | -4.2% | 0% | 0% | 0% | 16.8% | 3.2% | 3.3% | > 100 µg/mL | GI90 [19]: > 100 µg/mL; GI50 at 72 h [20]: > 100 µg/mL; GI90 (A549): > 100 µg/mL; GI50 at 72 h [21]: > 100 µg/mL; GI90 (MCF7): > 100 µg/mL; IC50 (Escherichia coli): > 30 µg/mL; MIC (Escherichia coli): > 30 µg/mL; IC50 (Pseudomonas): > 30 µg/mL; MIC (Pseudomonas): > 30 µg/mL; IC50 (Staphylococcus aureus): > 30 µg/mL; MIC (Staphylococcus aureus): > 30 µg/mL; IC50 (Bacillus subtilis): > 30 µg/mL; MIC (Bacillus subtilis): > 30 µg/mL
